# Test results taken from patent publication US20140303216A1, “COMPOSITIONS AND METHODS FOR INDUCING DISRUPTION OF BLOOD VASCULATURE AND FOR REDUCING ANGIOGENESIS” (BOARD OF REGENTS, THE UNIVERSITY OF TEXAS SYSTEM, priority 2011, published 2014).
# Key:
# [1] = tested on: developing Xenopus embryos; assay: Xenopus embryo angiogenesis, in situ hybridization for erg/apinr and kdr:GFP imaging; format: in vivo, Xenopus laevis
# Text: (§1) Female adult Xenopus were ovulated by injections of human chorionic gonadotropin, and eggs were fertilized in vitro and dejellied in 3% cysteine (pH 7.9) and subsequently reared in ⅓×Marc's modified Ringer's (MMR) solution. For microinjections, embryos were placed in a solution of 2% Ficoll in ⅓×MMR solution, injected using forceps and an Oxford universal manipulator, reared in 2% Ficoll in ⅓×MMR to stage 9, then washed and reared in ⅓×MMR solution alone. For bilateral rab11b knock-down experiments, the posterior cardinal vein and intersomitic veins were targeted by injecting Morpholino antisense oligonucleotides (MOs) into the two ventral cells equatorially at the four-cell stage. For unilateral knockdown, only one ventral cell was injected. MOs were injected at 40 ng per blastomere. For the experiments to see the drug effects, embryos were placed in a solution of each chemical dissolved in 1% DMSO diluted in ⅓×MMR during indicated stages. For bead micro-surgery implantation, Affi-Gel Blue Gel beads (Bio-Rad) were soaked with 0.7 mg/ml recombinant mouse VEGF 164 aa (R&D systems) or BSA as a control. Whole-mount in situ hybridization for erg and apinr was performed as described^29.
# (§2) To analyze action of TBZ precisely on inhibition of angiogenesis and disruption of vasculature, we tested TBZ on two different developmental stages. Xenopus late tailbud embryos at stage 31 were selected for testing the inhibitory effect of TBZ on angiogenesis (FIG. 3A-D). This embryonic stage coincides with the onset of intersomitic vein (ISV) angiogenesis, the process of forming smaller blood vessels by sprouting from pre-existing blood vessels. To observe disruption of existing vasculature, we selected stage 35/36 embryos in which the posterior cardinal vein (PCV) and ISV are already developed (FIG. 15).
# [2] = tested on: developing Xenopus embryos; assay: Ectopic angiogenesis stimulated by VEGF-soaked beads implanted into Xenopus embryos; format: in vivo, Xenopus laevis
# Protocol: FIG. 12. TBZ inhibits ectopic angiogenesis (note the doubled PCV in the left panel) stimulated by Affy-gel blue beads (75-150 μm diameter, indicated by white arrowheads) pre-soaked with 0.7 mg/ml vascular endothelial growth factor (VEGF) and microsurgically implanted into developing Xenopus embryos, assaying for the vasculature by ISH versus erg or apinr (showing data for erg). 6 of 8 control animals developed ectopic PCV or VV, as opposed to 0 of 9 TBZ-dosed animals (p value=0.0023).
# as §1, with “For the experiments to see the drug effects, embryos were placed in a solution of each chemical dissolved in 1% DMSO diluted in ⅓×MMR during indicated stages. For bead micro-surgery implantation, Affi-Gel Blue Gel beads (Bio-Rad) were soaked with 0.7 mg/ml recombinant mouse VEGF 164 aa (R&D systems) or BSA as a control. Whole-mount in situ hybridization for erg and apinr was performed as described^29.” left out
# [3] = tested on: vasculature within kdr:GFP frogs; assay: Time-lapse fluorescence microscopy of vasculature in kdr:GFP Xenopus embryos; format: in vivo, Xenopus laevis
# Text: Immunohistochemistry and kdr:GFP transgenic Xenopus laevis were imaged on an inverted Zeiss LSM5 Pascal confocal microscope and Zeiss 5-LIVE Fast Scanning confocal microscope. Confocal images were processed and cropped in Imaris software (BITPLANE) and Adobe Illustrator and Adobe Photoshop for compilation of Figures.
# as §2
# As a direct test of the vascular disrupting activity of TBZ, we performed time-lapse imaging of developing vasculature. Using Kdr-GFP transgenic embryos^12 and time-lapse confocal microscopy^22, we could effectively image developing vasculature in vivo for periods of up 20 hours. During this time, the growth of existing blood vessels and the sprouting of new vasculature could be easily followed (FIG. 16). […] Upon longer exposures, endothelial cells scattered and many underwent dramatic rounding (FIGS. 5A, 17).
# HUVEC cells = assay: HUVEC apoptosis and proliferation (Caspase-3, Phospho-histone H3 immunostaining); format: cell-based, human; conditions: cultured on 0.1% gelatin
# Text: FIG. 18. TBZ treatment (A) increases apoptosis and (B) decreases proliferation of HUVEC cells cultured on 0.1% gelatin, but only by approximately 2-fold. Both changes are significant under a t test (p=0.015, p=0.01, respectively). Error bars represent mean±1 s.d. across 14-16 fields of view of 200× magnification confocal microscopy cell images across 2-3 independent experiments. Scale bar, 100 μm.
# Control cells received 1% DMSO.
# mitochondria = assay: Mitochondrial mass and membrane potential (MitoTracker Green/Red); format: cell-based
# [4] = tested on: HT1080 human fibrosarcoma xenograft; assay: HT1080 human fibrosarcoma xenograft model; format: in vivo, athymic Cre nu/nu mice; conditions: TBZ 50 mg/kg
# Protocol: Specific pathogen-free athymic Cre Nu/nu mice were purchased from Charles River Laboratories. The HT-1080 human fibrosarcoma cell line was obtained from the American Type Culture Collection (ATCC). HT-1080 cells were cultured in DMEM (Gibco) containing 10% fetal bovine serum (FBS, Gibco) in tissue culture flasks at 37° C. in a humidified atmosphere of 5% CO2. In order to generate a mouse xenograft model, a suspension of the HT-1080 cells (3×10^6 in 50p1 PBS) mixed with an equal volume of Matrigel (BD Bioscience) was subcutaneously implanted into the flank region of 7-8 week old female mice. Upon establishment of tumors (approx. 40 mm^3), mice were given intraperitoneal injections of 1 mg thiabendazole (Sigma-Aldrich), suspended in 20 μl 100% DMSO. As a control, an equal volume of DMSO was injected in the same manner. Tumor growth was monitored by measuring the length and width of each tumor using digital calipers, and the tumor volume in mm^3 calculated by the formula: Volume=(width)^2×length/2. Upon a tumor reaching the maximum size permitted by the Institutional Animal Care and Use Committee (1.5 cm in diameter), the mouse was sacrificed, and the tumor excised. […] Control cells received 1% DMSO.
# HT1080 cells = assay: HT1080 cell proliferation in vitro; format: cell-based, human; conditions: cultured in vitro
# Text: FIG. 21. […] Error bars represent mean±1 s.d. across 14-15 fields of view of 200× magnification confocal microscopy cell images across 2 independent experiments. Scale bar, 100 μm.
# VEGF = VEGF levels in HT1080 cells (Western blotting, ELISA); format: cell-based, human; conditions: 250 μM TBZ, 24 hours
# Protocol: Cells were lysed in cell lysis buffer (Cell Signaling Technology) containing 1 mM PMSF, and analyzed by SDS-PAGE and western blotting using anti-VEGF (Santa Cruz, A-20) or anti-GAPDH (Cell Signaling Technology) antibodies. The secreted VEGF level in culture media was determined by enzyme-linked immunosorbent assay (ELISA; R&D) according to the manufacturer's instructions.
# [5] = rats; cited from earlier work
# HUVECs = assay: HUVEC cytoskeleton imaging (actin stress fibers, β-tubulin immunohistochemistry)
# Protocol: Alexa Fluor 488 phalloidin (Invitrogen) and/or 4′,6-Diamidino-2-phenylindole (Sigma) were added as needed.
structure (smiles),measurement,setting,value
"c1ccc2[nH]c(-c3cscn3)nc2c1 [TBZ, 4-(1H-1,3-benzodiazol-2-yl)-1,3-thiazole]",concentration at which angiogenesis inhibition was observed,[1]; Xenopus embryos in vivo,100 to 250 µM
same,"angiogenesis, expression of vascular-specific genes apinr and erg","[1]; Xenopus embryos, 250 μM TBZ in 1% DMSO, treated at stage 31, imaged at stages 35-36",severely impaired angiogenesis
same,disruption of pre-existing vasculature,"[1]; treatment at later stages (stage 36), in situ hybridization versus apinr at stage 39",overt breakdown of established vasculature
same,animals that developed ectopic PCV or VV,"[2]; beads soaked with 0.7 mg/ml VEGF, control 6 of 8, p value=0.0023",0 of 9
same,ectopic angiogenesis induced by ectopic VEGF,[2]; frog embryos,blocked
same,exposure time after which established blood vessels disintegrated,[3]; Kdr-GFP transgenic embryos,approximately 90 minutes
same,growth and sprouting of blood vessels,"[3]; Kdr-GFP transgenic embryos, time-lapse confocal microscopy",completely prevented
same,"persistence of vascular gene expression in dispersed, rounded kdr-GFP+ endothelial cells after treatment",[3]; in vivo,up to 17 hours
same,time within which endothelial cells retract from one another and round up,[3]; in vivo imaging of the vasculature,≤ 2 h
same,recovery of vasculature after washout of the drug,[3]; washout after TBZ-induced cell dispersal and rounding,significant re-spreading of endothelial cells and re-formation of blood vessels
same,decrease of proliferation of HUVEC cells,HUVEC cells; p=0.01,approximately 2 fold
same,increase of apoptosis of HUVEC cells,HUVEC cells; p=0.015,approximately 2 fold
same,mitochondrial mass (MitoTracker Green signal),mitochondria,no differences
same,mitochondrial membrane potential (ratio of MitoTracker Red signal to Mitotracker Green signal),mitochondria,no differences
same,tumor microvessel density in xenografts (CD31 staining),[4],significantly impair
same,"xenograft growth, time course of tumor size and final tumor mass","[4]; intraperitoneal, 27 d",significantly slowed
same,rate of proliferation in HT1080 cells,HT1080 cells,did not alter
same,level of VEGF expressed by HT1080 cells (Western blotting),VEGF,did not alter
same,level of VEGF secreted by HT1080 cells (ELISA),VEGF,did not alter
same,effect on fertility,[5],does not appear to affect fertility
same,actin stress fibers,HUVECs; 250 μM TBZ versus 1% DMSO control,disorganization of actin stress fibers
same,gross organization of the MT cytoskeleton,"HUVECs; HUVEC cells in culture, 250 μM TBZ",only a very slight effect
